Data published in ChEMBL document CHEMBL1201862, “PubChem BioAssay data set” (2004).
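These data come from cells grown in 96-well plates and exposed to compound for 48 hours at five concentrations. The concentration for 50% growth inhibition is given as GI50.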 Activity calls are given as the source filed them. No stated cut-off is given here; in the data, active = GI50 up to about 1.1 µM and inactive = higher.

How the values were obtained:
Experiment in all cases: inhibition of tumour cell growth, NCI panel, 48 h
EKVX = system: EKVX
HCC 2998 = system: HCC 2998
HCT-15 = system: HCT-15
HOP-62 = system: HOP-62
IGROV-1 = system: IGROV-1
LOX IMVI = system: LOX IMVI
MCF7 = system: MCF7
MDA-N = system: MDA-N
MOLT-4 = system: MOLT-4
NCI-H23 = system: NCI-H23
PC-3 = system: PC-3
RXF 393 = system: RXF 393
SF-268 = system: SF-268
SK-MEL-5 = system: SK-MEL-5
SNB-19 = system: SNB-19
SNB-75 = system: SNB-75
SR = system: SR
UO-31 = system: UO-31
CCRF-CEM = system: CCRF-CEM
RPMI-8226 = system: RPMI-8226

`Nc1nc(-c2ccccc2)c(-c2ccccc2)c(-c2nc(N)nc(-c3ccccc3)c2-c2ccccc2)n1` was tested, and the GI50 (EKVX) was 63.7 µM (inactive), the GI50 (HCC 2998) was 49 µM (inactive) and the GI50 (HCT-15) was over 100 µM. The GI50 (HOP-62) was > 100 µM (inactive), the GI50 (IGROV-1) was > 100 µM (inactive) and the GI50 (LOX IMVI) was > 100 µM (inactive). The GI50 (MCF7) was 49.4 µM (inactive), the GI50 (MDA-N) was 75.7 µM (inactive) and the GI50 (MOLT-4) was > 100 µM (inactive). The GI50 (NCI-H23) was > 100 µM (inactive), the GI50 (PC-3) was > 100 µM (inactive) and the GI50 (RXF 393) was 94 µM (inactive). The GI50 (SF-268) was > 100 µM (inactive), the GI50 (SK-MEL-5) was > 100 µM (inactive) and the GI50 (SNB-19) was > 100 µM (inactive). For the same compound, the GI50 (SNB-75) was 88.7 µM (inactive), the GI50 (SR) was > 100 µM (inactive) and the GI50 (UO-31) was > 100 µM (inactive).

In the case of `CC(C)N/C(=N\C#N)NS(=O)(=O)c1cnccc1NC1CCCCCCC1`, the GI50 (CCRF-CEM) is reported as > 100 µM (inactive), the GI50 (EKVX) is reported as > 100 µM (inactive) and the GI50 (HCC 2998) is reported as > 100 µM (inactive). For the same compound, the GI50 (HCT-15) was over 100 µM, the GI50 (HOP-62) was > 100 µM (inactive) and the GI50 (IGROV-1) was > 100 µM (inactive). The GI50 (MCF7) was > 100 µM (inactive), the GI50 (MDA-N) was > 100 µM (inactive) and the GI50 (MOLT-4) was > 100 µM (inactive). The GI50 (NCI-H23) was > 100 µM (inactive), the GI50 (PC-3) was > 100 µM (inactive) and the GI50 (RPMI-8226) was 39.8 µM (inactive). The GI50 (RXF 393) was > 100 µM (inactive), the GI50 (SF-268) was > 100 µM (inactive) and the GI50 (SK-MEL-5) was > 100 µM (inactive). The GI50 (SNB-19) was > 100 µM (inactive), the GI50 (SNB-75) was > 100 µM (inactive) and the GI50 (SR) was > 100 µM (inactive). The GI50 (UO-31) was > 100 µM (inactive).

`NC(=O)NCCCC(NC(=O)OCCCCn1ccc(=O)[nH]c1=O)C(=O)O` (stereo not drawn) was tested, and the GI50 (CCRF-CEM) was > 100 µM (inactive), the GI50 (EKVX) was > 100 µM (inactive) and the GI50 (HCC 2998) was > 100 µM (inactive). The GI50 (HCT-15) was over 100 µM, the GI50 (HOP-62) was > 100 µM (inactive) and the GI50 (IGROV-1) was > 100 µM (inactive). For the same compound, the GI50 (LOX IMVI) was > 100 µM (inactive), the GI50 (MCF7) was > 100 µM (inactive) and the GI50 (MDA-N) was > 100 µM (inactive). The GI50 (MOLT-4) was > 100 µM (inactive), the GI50 (NCI-H23) was > 100 µM (inactive) and the GI50 (PC-3) was > 100 µM (inactive). For the same compound, the GI50 (RPMI-8226) was > 100 µM (inactive), the GI50 (RXF 393) was > 100 µM (inactive) and the GI50 (SF-268) was > 100 µM (inactive). For the same compound, the GI50 (SNB-19) was > 100 µM (inactive), the GI50 (SNB-75) was > 100 µM (inactive) and the GI50 (SR) was > 100 µM (inactive). The GI50 (UO-31) was > 100 µM (inactive).

`N#CC1CCN2N=C(c3ccccc3)SC12c1ccccc1` (stereo not drawn) was tested, and the GI50 (EKVX) was 18.8 µM (inactive), the GI50 (HCC 2998) was 26.7 µM (inactive) and the GI50 (HCT-15) was 38.5 µM. For the same compound, the GI50 (HOP-62) was > 100 µM (inactive), the GI50 (IGROV-1) was > 100 µM (inactive) and the GI50 (LOX IMVI) was 51.9 µM (inactive). For the same compound, the GI50 (MCF7) was 31.1 µM (inactive), the GI50 (MDA-N) was 54.7 µM (inactive) and the GI50 (MOLT-4) was 17.5 µM (inactive). For the same compound, the GI50 (NCI-H23) was 32 µM (inactive), the GI50 (PC-3) was 35.7 µM (inactive) and the GI50 (RPMI-8226) was 26.3 µM (inactive). For the same compound, the GI50 (RXF 393) was 31.3 µM (inactive), the GI50 (SF-268) was > 100 µM (inactive) and the GI50 (SK-MEL-5) was 34.4 µM (inactive). The GI50 (SNB-19) was > 100 µM (inactive), the GI50 (SNB-75) was > 100 µM (inactive) and the GI50 (SR) was 37.1 µM (inactive). The GI50 (UO-31) was 35.1 µM (inactive).

`COc1ccc(NC(C)=O)cc1N1C(=O)/C(=C\c2cccc(Oc3ccccc3)c2)S(=O)(=O)C1c1ccccc1` (stereo not drawn) was tested, and the GI50 (CCRF-CEM) was 16.1 µM (inactive), the GI50 (EKVX) was 41.6 µM (inactive) and the GI50 (HCC 2998) was > 100 µM (inactive). For the same compound, the GI50 (HCT-15) was 39 µM, the GI50 (HOP-62) was 71.6 µM (inactive) and the GI50 (IGROV-1) was 34.5 µM (inactive). The GI50 (LOX IMVI) was 26.9 µM (inactive), the GI50 (MCF7) was 25.9 µM (inactive) and the GI50 (MDA-N) was 21 µM (inactive). The GI50 (MOLT-4) was 16.9 µM (inactive), the GI50 (NCI-H23) was 60.3 µM (inactive) and the GI50 (PC-3) was 36.6 µM (inactive). The GI50 (RPMI-8226) was 22.3 µM (inactive), the GI50 (RXF 393) was 54.8 µM (inactive) and the GI50 (SK-MEL-5) was 35.3 µM (inactive). The GI50 (SNB-19) was 46.1 µM (inactive), the GI50 (SNB-75) was 19 µM (inactive) and the GI50 (SR) was 4.21 µM (inactive). The GI50 (UO-31) was 18.9 µM (inactive).

With `COC(=O)C1(C(=O)OC)N=C(C)OC1/C=C/c1ccccc1` (stereo not drawn) the GI50 (CCRF-CEM) was 75.3 µM (inactive), the GI50 (EKVX) was > 100 µM (inactive) and the GI50 (HCC 2998) was > 100 µM (inactive). For the same compound, the GI50 (HCT-15) was over 100 µM, the GI50 (HOP-62) was > 100 µM (inactive) and the GI50 (IGROV-1) was > 100 µM (inactive). For the same compound, the GI50 (LOX IMVI) was > 100 µM (inactive), the GI50 (MCF7) was > 100 µM (inactive) and the GI50 (MDA-N) was > 100 µM (inactive). For the same compound, the GI50 (MOLT-4) was > 100 µM (inactive), the GI50 (NCI-H23) was > 100 µM (inactive) and the GI50 (PC-3) was > 100 µM (inactive). For the same compound, the GI50 (RPMI-8226) was 38 µM (inactive), the GI50 (RXF 393) was > 100 µM (inactive) and the GI50 (SK-MEL-5) was > 100 µM (inactive). For the same compound, the GI50 (SNB-19) was > 100 µM (inactive), the GI50 (SNB-75) was > 100 µM (inactive) and the GI50 (SR) was > 100 µM (inactive). For the same compound, the GI50 (UO-31) was > 100 µM (inactive).
